Read-outs that look alike come from different tables or passages of the source.
Key:
Assay in all cases: Test C pre/postemergence
Format in all cases: in vivo
corn (Zea mays) = conditions: for Corn plant response rating (crop injury, 0 = no effect, 100 = complete kill) at 62 g/ha / Corn plant response rating (crop injury, 0 = no effect, 100 = complete kill) at 125 g/ha / Corn plant response rating (crop injury, 0 = no effect, 100 = complete kill) at 250 g/ha / Corn plant response rating (crop injury, 0 = no effect, 100 = complete kill) at 500 g/ha: Zea mays
How it was run: (§1)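 Pre: seeds planted, sprayed same day. Post: 1- to 4-leaf plants (2–18 cm). Formulation: non-phytotoxic solvent + surfactant. Greenhouse 12–14 d; visual % control vs untreated, 0–100.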

[1] = system: goosegrass (Eleusine indica); conditions: for pest or weed control at 62 g/ha / pest or weed control at 125 g/ha / pest or weed control at 250 g/ha / pest or weed control at 500 g/ha: Eleusine indica
How it was run: as §1

[2] = system: Surinam grass (Brachiaria decumbens)
How it was run: as §1

[3] = Postemergence, 62 g ai/ha, scale 0 to 100 (0 no effect, 100 complete control)
[4] = Postemergence, 125 g ai/ha, scale 0 to 100 (0 no effect, 100 complete control)
[5] = Preemergence, 16 g ai/ha, scale 0 to 100, 0 no effect, 100 complete control
[6] = Preemergence, 31 g ai/ha, scale 0 to 100, 0 no effect, 100 complete control
[7] = Preemergence, 62 g ai/ha, scale 0 to 100, 0 no effect, 100 complete control
[8] = Preemergence, 125 g ai/ha, scale 0 to 100
[9] = Preemergence, 250 g ai/ha, scale 0 to 100
[10] = Postemergence, 250 g ai/ha, scale 0 to 100
[11] = Postemergence, 500 g ai/ha, scale 0 to 100
[12] = Preemergence, 500 g ai/ha, scale 0 to 100

SMILES: COCc1nc(C2CC2)nc(N)c1Br [Compound 11]
- Plant response rating (scale of 0 to 100), Corn (corn (Zea mays); Postemergence, 16 g ai/ha): 0
- Plant response rating (scale of 0 to 100), Corn (corn (Zea mays); Postemergence, 31 g ai/ha): 0
- Corn plant response rating (corn (Zea mays); [3]): 0
- Corn plant response rating (corn (Zea mays); [4]): 0
- Plant response rating, Corn (corn (Zea mays); [5]): 0
- Plant response rating, Corn (corn (Zea mays); [6]): 0
- Plant response rating, Corn (corn (Zea mays); [7]): 0
- Plant response rating, Corn (corn (Zea mays); [8]): 0
- Plant response rating (scale of 0 to 100), Goosegrass ([1]; Postemergence, 16 g ai/ha): 0
- Plant response rating (scale of 0 to 100), Goosegrass ([1]; Postemergence, 31 g ai/ha): 0
- Goosegrass plant response rating [1, 3]: 0
- Goosegrass plant response rating [1, 4]: 0
- Plant response rating, Goosegrass [1, 5]: 0
- Plant response rating, Goosegrass [1, 6]: 0
- Plant response rating, Goosegrass [1, 7]: 0
- Plant response rating, Goosegrass [1, 8]: 0
- Plant response rating (scale of 0 to 100), Surinam Grass ([2]; Postemergence, 16 g ai/ha): 0
- Plant response rating (scale of 0 to 100), Surinam Grass ([2]; Postemergence, 31 g ai/ha): 0
- Surinam Grass plant response rating [2, 3]: 0
- Surinam Grass plant response rating [2, 4]: 0
- Plant response rating, Surinam Grass [2, 5]: 0
- Plant response rating, Surinam Grass [2, 6]: 0
- Plant response rating, Surinam Grass [2, 7]: 100
- Plant response rating, Surinam Grass [2, 8]: 100

SMILES: CCOC(=O)Cc1nc(C2CC2)nc(N)c1Br [Compound 12]
- Plant response rating, Corn (corn (Zea mays); [6]): 0
- Plant response rating, Corn (corn (Zea mays); [7]): 30
- Plant response rating, Corn (corn (Zea mays); [8]): 60
- Plant response rating, Goosegrass [1, 6]: 0
- Plant response rating, Goosegrass [1, 7]: 0
- Plant response rating, Goosegrass [1, 8]: 0
- Plant response rating, Goosegrass [1, 9]: 0
- Plant response rating, Surinam Grass [2, 6]: 0
- Plant response rating, Surinam Grass [2, 8]: 0
- Plant response rating, Surinam Grass [2, 9]: 0

SMILES: COC(=O)Cc1nc(C2CC2)nc(N)c1Br [Compound 13]
- Plant response rating, Corn (corn (Zea mays); [6]): 0
- Plant response rating, Corn (corn (Zea mays); [7]): 5
- Plant response rating, Corn (corn (Zea mays); [8]): 10
- Plant response rating, Corn (corn (Zea mays); [9]): 30
- Plant response rating, Goosegrass [1, 6]: 0
- Plant response rating, Goosegrass [1, 7]: 0
- Plant response rating, Goosegrass [1, 8]: 0
- Plant response rating, Goosegrass [1, 9]: 0
- Plant response rating, Surinam Grass [2, 6]: 0
- Plant response rating, Surinam Grass [2, 7]: 0
- Plant response rating, Surinam Grass [2, 8]: 0
- Plant response rating, Surinam Grass [2, 9]: 10

SMILES: CCCOC(=O)c1nc(C2CC2)nc(N)c1Br [Compound 15]
- Corn plant response rating (corn (Zea mays); [3]): 15
- Corn plant response rating (corn (Zea mays); [4]): 15
- Plant response rating, Corn (corn (Zea mays); [10]): 55
- Plant response rating, Corn (corn (Zea mays); [11]): 75
- Plant response rating, Corn (corn (Zea mays); [7]): 0
- Plant response rating, Corn (corn (Zea mays); [8]): 15
- Plant response rating, Corn (corn (Zea mays); [9]): 45
- Plant response rating, Corn (corn (Zea mays); [12]): 60
- Goosegrass plant response rating [1, 3]: 0
- Goosegrass plant response rating [1, 4]: 0
- Plant response rating, Goosegrass [1, 10]: 40
- Plant response rating, Goosegrass [1, 11]: 55
- Plant response rating, Goosegrass [1, 7]: 0
- Plant response rating, Goosegrass [1, 8]: 0
- Plant response rating, Goosegrass [1, 9]: 0
- Plant response rating, Goosegrass [1, 12]: 0
- Surinam Grass plant response rating [2, 3]: 0
- Surinam Grass plant response rating [2, 4]: 20
- Plant response rating, Surinam Grass [2, 10]: 55
- Plant response rating, Surinam Grass [2, 11]: 65
- Plant response rating, Surinam Grass [2, 7]: 15
- Plant response rating, Surinam Grass [2, 8]: 65
- Plant response rating, Surinam Grass [2, 9]: 75
- Plant response rating, Surinam Grass [2, 12]: 95

SMILES: CCCCOC(=O)c1nc(C2CC2)nc(N)c1Br [Compound 16]
- Plant response rating (scale of 0 to 100), Corn (corn (Zea mays); Postemergence, 31 g ai/ha): 0
- Corn plant response rating (corn (Zea mays); [3]): 0
- Corn plant response rating (corn (Zea mays); [4]): 20
- Plant response rating, Corn (corn (Zea mays); [10]): 55
- Plant response rating, Corn (corn (Zea mays); [6]): 0
- Plant response rating, Corn (corn (Zea mays); [7]): 15
- Plant response rating, Corn (corn (Zea mays); [8]): 20
- Plant response rating, Corn (corn (Zea mays); [9]): 75
- Plant response rating (scale of 0 to 100), Goosegrass ([1]; Postemergence, 31 g ai/ha): 0
- Goosegrass plant response rating [1, 3]: 0
- Goosegrass plant response rating [1, 4]: 0
- Plant response rating, Goosegrass [1, 10]: 20
- Plant response rating, Goosegrass [1, 6]: 0
- Plant response rating, Goosegrass [1, 7]: 0
- Plant response rating, Goosegrass [1, 8]: 0
- Plant response rating, Goosegrass [1, 9]: 0
- Plant response rating (scale of 0 to 100), Surinam Grass ([2]; Postemergence, 31 g ai/ha): 0
- Surinam Grass plant response rating [2, 3]: 0
- Surinam Grass plant response rating [2, 4]: 25
- Plant response rating, Surinam Grass [2, 10]: 55
- Plant response rating, Surinam Grass [2, 6]: 0
- Plant response rating, Surinam Grass [2, 7]: 0
- Plant response rating, Surinam Grass [2, 8]: 15
- Plant response rating, Surinam Grass [2, 9]: 80

SMILES: CC(C)COC(=O)c1nc(C2CC2)nc(N)c1Br [Compound 17]
- Plant response rating (scale of 0 to 100), Corn (corn (Zea mays); Postemergence, 31 g ai/ha): 0
- Corn plant response rating (corn (Zea mays); [3]): 0
- Corn plant response rating (corn (Zea mays); [4]): 0
- Plant response rating, Corn (corn (Zea mays); [10]): 20
- Plant response rating, Corn (corn (Zea mays); [6]): 0
- Plant response rating, Corn (corn (Zea mays); [7]): 20
- Plant response rating, Corn (corn (Zea mays); [8]): 35
- Plant response rating, Corn (corn (Zea mays); [9]): 75
- Plant response rating (scale of 0 to 100), Goosegrass ([1]; Postemergence, 31 g ai/ha): 0
- Goosegrass plant response rating [1, 3]: 0
- Goosegrass plant response rating [1, 4]: 0
- Plant response rating, Goosegrass [1, 10]: 0
- Plant response rating, Goosegrass [1, 6]: 0
- Plant response rating, Goosegrass [1, 7]: 0
- Plant response rating, Goosegrass [1, 8]: 0
- Plant response rating, Goosegrass [1, 9]: 0
- Plant response rating (scale of 0 to 100), Surinam Grass ([2]; Postemergence, 31 g ai/ha): 0
- Surinam Grass plant response rating [2, 3]: 0
- Surinam Grass plant response rating [2, 4]: 0
- Plant response rating, Surinam Grass [2, 10]: 0
- Plant response rating, Surinam Grass [2, 6]: 0
- Plant response rating, Surinam Grass [2, 7]: 0
- Plant response rating, Surinam Grass [2, 8]: 0
- Plant response rating, Surinam Grass [2, 9]: 0

SMILES: Nc1nc(C2CC2)nc(C(=O)OCc2ccccc2)c1Br [Compound 22, phenylmethyl 6-amino-5-bromo-2-cyclopropyl-4-pyrimidinecarboxylate]
- Corn plant response rating (crop injury, 0 = no effect, 100 = complete kill) at 62 g/ha (corn (Zea mays); post-emergence, Postemergence, 62 g ai/ha, scale 0 to 100 (0 no effect, 100 complete control), read-out: Corn plant response rating): 30%
- Corn plant response rating (crop injury, 0 = no effect, 100 = complete kill) at 125 g/ha (corn (Zea mays); post-emergence, Postemergence, 125 g ai/ha, scale 0 to 100 (0 no effect, 100 complete control), read-out: Corn plant response rating): 40%
- Corn plant response rating (crop injury, 0 = no effect, 100 = complete kill) at 250 g/ha (corn (Zea mays); post-emergence, Postemergence, 250 g ai/ha, scale 0 to 100): 60%
- Corn plant response rating (crop injury, 0 = no effect, 100 = complete kill) at 500 g/ha (corn (Zea mays); post-emergence, Postemergence, 500 g ai/ha, scale 0 to 100): 65%
- Corn plant response rating (crop injury, 0 = no effect, 100 = complete kill) at 62 g/ha (corn (Zea mays); pre-emergence, Preemergence, 62 g ai/ha, scale 0 to 100, 0 no effect, 100 complete control, read-out: Plant response rating, Corn): 40%
- Corn plant response rating (crop injury, 0 = no effect, 100 = complete kill) at 125 g/ha (corn (Zea mays); pre-emergence, Preemergence, 125 g ai/ha, scale 0 to 100, read-out: Plant response rating, Corn): 50%
- Corn plant response rating (crop injury, 0 = no effect, 100 = complete kill) at 250 g/ha (corn (Zea mays); pre-emergence, Preemergence, 250 g ai/ha, scale 0 to 100): 65%
- Corn plant response rating (crop injury, 0 = no effect, 100 = complete kill) at 500 g/ha (corn (Zea mays); pre-emergence, Preemergence, 500 g ai/ha, scale 0 to 100): 65%
- pest or weed control at 62 g/ha ([1]; post-emergence, Postemergence, 62 g ai/ha, scale 0 to 100 (0 no effect, 100 complete control), read-out: Goosegrass plant response rating): 10%
- pest or weed control at 125 g/ha ([1]; post-emergence, Postemergence, 125 g ai/ha, scale 0 to 100 (0 no effect, 100 complete control), read-out: Goosegrass plant response rating): 10%
- pest or weed control at 250 g/ha ([1]; post-emergence, Postemergence, 250 g ai/ha, scale 0 to 100, read-out: Plant response rating, Goosegrass): 20%
- pest or weed control at 500 g/ha ([1]; post-emergence, Postemergence, 500 g ai/ha, scale 0 to 100, read-out: Plant response rating, Goosegrass): 25%
- pest or weed control at 62 g/ha ([1]; pre-emergence, Preemergence, 62 g ai/ha, scale 0 to 100, 0 no effect, 100 complete control, read-out: Plant response rating, Goosegrass): 0%
- pest or weed control at 125 g/ha ([1]; pre-emergence, Preemergence, 125 g ai/ha, scale 0 to 100, read-out: Plant response rating, Goosegrass): 0%
- pest or weed control at 250 g/ha ([1]; pre-emergence, Preemergence, 250 g ai/ha, scale 0 to 100, read-out: Plant response rating, Goosegrass): 80%
- pest or weed control at 500 g/ha ([1]; pre-emergence, Preemergence, 500 g ai/ha, scale 0 to 100, read-out: Plant response rating, Goosegrass): 100%
- pest or weed control at 125 g/ha ([2]; Urochloa decumbens, post-emergence, Postemergence, 125 g ai/ha, scale 0 to 100 (0 no effect, 100 complete control), read-out: Surinam Grass plant response rating): 60%
- pest or weed control at 500 g/ha ([2]; Urochloa decumbens, post-emergence, Postemergence, 500 g ai/ha, scale 0 to 100, read-out: Plant response rating, Surinam Grass): 85%
- pest or weed control at 62 g/ha ([2]; Urochloa decumbens, post-emergence, Postemergence, 62 g ai/ha, scale 0 to 100 (0 no effect, 100 complete control), read-out: Surinam Grass plant response rating): 55%
- pest or weed control at 250 g/ha ([2]; Urochloa decumbens, post-emergence, Postemergence, 250 g ai/ha, scale 0 to 100, read-out: Plant response rating, Surinam Grass): 85%
- pest or weed control at 125 g/ha ([2]; Urochloa decumbens, pre-emergence, Preemergence, 125 g ai/ha, scale 0 to 100, read-out: Plant response rating, Surinam Grass): 90%
- pest or weed control at 250 g/ha ([2]; Urochloa decumbens, pre-emergence, Preemergence, 250 g ai/ha, scale 0 to 100, read-out: Plant response rating, Surinam Grass): 100%
- pest or weed control at 500 g/ha ([2]; Urochloa decumbens, pre-emergence, Preemergence, 500 g ai/ha, scale 0 to 100, read-out: Plant response rating, Surinam Grass): 100%

Reference: patent publication US8802597B2, “Herbicidal pyrimidines” (E I du Pont de Nemours and Company, priority 2003, dated 2014)
